{"source": "patent US20190382445A1", "about": "“PEPTIDE HAVING MELANOGENESIS-INHIBITING ACTIVITY AND COMPOSITION COMPRISING SAME” (RUBY CROWN CO. LTD., priority 2016, published 2019)", "key": {"[1]": {"system": "human epidermal melanocytes (HEM)", "assay": "Melanin content in HEM stimulated with α-MSH or L-tyrosine", "type": "cell-based", "text": "FIG. 5 is an experimental result showing effects of peptide B6 on cell viability of human epidermal melanocytes (HEM), melanin content and human tyrosinase (TYR) enzymatic activity. […] The intracellular and extracellular melanin contents were normalized with respect to the total protein content. […] Data are expressed in percent (%) as mean±standard error (mean±SE, n=3) compared to the vehicle control group. In the figures, #represents p<0.05 compared to the control group and * represents p<0.05 compared to cells stimulated only with tyrosine.\n(§1) Melanogenesis-inhibitory effects of the analyte (the peptides) was confirmed using the B16-F10 cell line and HEM. B16-F10 cells were treated with a test peptide at different concentrations for 60 minutes and stimulated using a 100 nM α-MSH for 72 hours. While HEM was also treated with the test peptide at different concentrations for 60 minutes and cultured with 100 nM α-MSH or 4.0 mM L-tyrosine while replacing the culture medium every 48 hours for 6 days. Using the culture medium used for culturing cells (conditioned medium), extracellular melanin level was measured. On the other hand, intercellular melanin was extracted with 0.1M NaOH at 60° C. for 60 minutes. A melanin content was determined by measuring an absorbance at 475 nm according to a spectroscopic method. The resultant values were subjected to normalization with respect to the total protein content of the cell.\n(§2) Cell viability was determined by treating the cells with B6 at different concentrations of up to 1 mM for 24 hours (A in FIG. 5). […] Further, effects on melanin content in the cells were examined by pre-treatment of the cells with B6 peptide at different concentrations of up to 300 μM, and then, stimulating the same with α-MSH at 100 nM or tyrosine at 4 mM for […] (B, C in FIG. 5). As a positive control group for melanogenesis inhibition, arbutin was used."}, "[2]": {"system": "human epidermal melanocytes (HEM)", "assay": "Cell viability by MTT assay, HEM", "type": "cell-based", "details": "up to 300 μM, 24 hours (tested up to 1 mM)", "method": "(§3) Cell viability was determined by 3-(4,5-dimethylthiazol-2-yl)-2,5-diphenyltetrazolium bromide (MTT) assay. B16-F10 cell line and HEM were treated with test peptides at different concentrations for 24 hours. After washing with PBS, the cells were in a culture medium 100 including 1 mg/mL MTT (Amresco, Solon, Ohio, USA) added thereto for 3 hours. After removing the culture medium, formazan accumulated in the cells was […] using isopropanol and subjected to determination of absorbance at 595 nm using a SPECTROstar Nano microplate reader (BMG LABTECH GmbH, Ortenberg, Germany).\nas §2"}, "[3]": {"system": "B16-F10 cells", "assay": "Cell viability by MTT assay, B16-F10", "type": "cell-based, murine", "details": "up to 300 μM, 24 hours (tested up to 1 mM)", "method": "as §3\nCell viability was determined by treating the cells with B6 at different concentrations up to 1 mM for 24 hours (A in FIG. 4). […] Further, effects on melanin content in the cells were examined by pre-treatment of the cells with B6 peptide at different concentrations of up to 300 μM, and then, stimulating the same with α-MSH at 100 nM for 72 hours (B in FIG. 4)."}, "[4]": {"system": "B16-F10 cells", "assay": "Melanin content in α-MSH-stimulated B16-F10 cells (absorbance at 475 nm)", "type": "cell-based, murine", "details": "for melanin inhibitory effect of short peptides compared to B6 peptide: concentrations of 100 μM to 10 μM", "method": "FIG. 2 is an experimental result showing the effect of each hexapeptide on cellular melanin biosynthesis. FIG. 2A represents a peptide wherein the type of amino acids fixed at 3 positions in the amino acid sequence of the amino acids, while the type of amino acids is altered at the other 3 positions. FIG. 2B represents a peptide wherein the amino acid sequence was defined. The cell-based assay in FIG. 2 is conducted by treating B16-F10 cells with a vehicle or peptide at a predetermined concentration, stimulating the same with α-MSH at 100 nM, and measuring absorbance at 475 nm after 72 hours to determine melanin content. Data are expressed in percent (%) as mean ± standard error (mean±SE, n=3) compared to the vehicle control group. In the figures, # means p<0.05 compared to the control group and * means p<0.05 compared to cells stimulated only with α-MSH. The amino acid sequences described in FIG. 2 are all represented in the direction from the amino terminal to the carboxy terminal. An amino functional group (—NH2) shown in the peptide terminal is one added by carboxy terminal amidation used in peptide synthesis.\nThe cell-based Assay in FIG. 3 is conducted by treating B16-F10 cells with a vehicle or peptide at a predetermined concentration, stimulating the same with 100 nMα-[…], and measuring the absorbance at 475 nm after 72 hours to determine the melanin content. Data are expressed in percent (%) as mean±standard, error (mean±SE, n=3) compared to the vehicle control group. In the figures, # means p<0.05 compared to the control group and * means p<0.05 compared to cells stimulated only with α-MSH. The amino acid sequences described in FIG. 2 are all represented in the direction from the amino terminal to the carboxy terminal. An acetyl group (Ac—) shown in the peptide amino terminal or an amino functional group (—NH2) shown in the carboxy terminal is one added by chemical synthesis of peptide.\nas §1"}}, "note": "Ends that are not written are not given here."}
{"molecule": "N[C@@H](Cc1ccc(O)cc1)C(=O)O", "note": "[L-tyrosine]", "values": [{"measurement": "extracellular and intracellular melanin contents, effect of stimulus L-tyrosine", "setting": "[1]; tyrosine at 4 mM, HEM", "result": "increased extracellular and intracellular melanin contents"}]}
{"molecule": "FSHHLG-NH2 [B6, Phe-Ser-His-His-Leu-Gly]", "values": [{"measurement": "cell viability", "setting": "[2]", "result": "did not affect the viability"}, {"measurement": "cell viability", "setting": "[3]", "result": "did not affect the viability"}]}
{"molecule": "Ser-His-His-Leu-Gly (SHHLG; C3 peptide)", "values": [{"measurement": "melanogenesis inhibitory effect of short peptide", "setting": "[4]; 100 μM, 100 nM α-MSH, 72 hours", "result": "excellent in melanogenesis inhibitory effect"}]}
{"molecule": "FSHHLG [C1]", "values": [{"measurement": "melanin inhibitory effect of short peptides compared to B6 peptide", "setting": "[4]; 100 nM α-MSH, 72 hours", "result": "melanin inhibitory effect similar to B6 peptide"}]}
{"molecule": "Ac-Ser-Tyr-Ser-Met-Glu-His-Phe-Arg-Trp-Gly-Lys-Pro-Val-NH2 (Ac-SYSMEHFRWGKPV-NH2) [α-MSH, agent of melanocortin 1 receptor used to stimulate melanogenesis, reference compound]", "values": [{"measurement": "melanogenesis, effect of stimulus α-MSH", "setting": "[1]; α-MSH at 100 nM, HEM", "result": "did not show significant effect on melanogenesis"}, {"measurement": "melanin content, effect of stimulus", "setting": "[4]; α-MSH alone, B16-F10 cells", "result": "increased melanin content"}]}
{"molecule": "OC[C@H]1O[C@@H](Oc2ccc(O)cc2)[C@H](O)[C@@H](O)[C@@H]1O", "note": "[arbutin]", "values": [{"measurement": "inhibition of increase in melanin content by L-tyrosine", "setting": "[1]; HEM stimulated with 4 mM L-tyrosine, peptide up to 300 μM", "result": "effectively inhibited"}]}
{"molecule": "Phe-Ser-His-His-Leu (FSHHL; C2 peptide)", "values": [{"measurement": "melanin inhibitory effect of short peptides compared to B6 peptide", "setting": "[4]; 100 nM α-MSH, 72 hours", "result": "did not substantially inhibit melanogenesis"}]}
